The IC50 is the point on the concentration scale where inhibition reaches its midpoint.

Results on 29 compounds are retold here after patent US20130231360A1, “Beta-Carbolines as Inhibitors of Haspin and DYRK Kinases” (THE BRIGHAM AND WOMEN S HOSPITAL, INC., priority 2010, published 2013).

The target in the experiment is T1, Haspin kinase (Homo sapiens, UniProt Q8TF76).
T1 construct: This full-length Haspin gene was cloned into the pMALc2E vector; made in house; host or cells: E. coli Rosetta 2(DE3)pLysS
T1 sequence (Q8TF76 1-798): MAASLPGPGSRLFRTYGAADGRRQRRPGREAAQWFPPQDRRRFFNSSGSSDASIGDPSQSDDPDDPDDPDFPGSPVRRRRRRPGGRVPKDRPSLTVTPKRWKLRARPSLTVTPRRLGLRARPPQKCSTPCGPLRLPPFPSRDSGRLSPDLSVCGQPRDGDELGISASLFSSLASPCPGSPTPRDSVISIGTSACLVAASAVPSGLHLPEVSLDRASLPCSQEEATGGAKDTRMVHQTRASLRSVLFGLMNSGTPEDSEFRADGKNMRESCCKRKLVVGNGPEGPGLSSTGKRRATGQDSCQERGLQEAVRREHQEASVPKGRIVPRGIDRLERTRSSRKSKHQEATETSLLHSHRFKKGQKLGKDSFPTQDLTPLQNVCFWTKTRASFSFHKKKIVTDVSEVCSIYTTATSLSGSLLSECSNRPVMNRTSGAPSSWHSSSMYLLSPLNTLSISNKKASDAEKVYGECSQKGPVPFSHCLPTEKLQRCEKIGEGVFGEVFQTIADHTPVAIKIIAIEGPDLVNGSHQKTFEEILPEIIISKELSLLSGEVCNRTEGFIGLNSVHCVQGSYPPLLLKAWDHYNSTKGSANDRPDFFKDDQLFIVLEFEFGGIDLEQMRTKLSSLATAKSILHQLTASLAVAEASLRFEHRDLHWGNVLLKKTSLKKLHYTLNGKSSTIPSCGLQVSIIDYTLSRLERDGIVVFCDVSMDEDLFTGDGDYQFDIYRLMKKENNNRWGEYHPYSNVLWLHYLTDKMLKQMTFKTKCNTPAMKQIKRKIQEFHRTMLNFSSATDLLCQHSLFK
The experiment in a line: TR-FRET Haspin assay. In kind it is biochemical. The settings on record: for Haspin kinase inhibitory activity (in words): high throughput screen by TR-FRET, hits revalidated in radiometric assay and confirmed in cellular assay. From the text:
A synthetic codon-optimized human Haspin cDNA was made in vector pUC57 at GenScript Corporation (Piscataway, N.J.) to facilitate bacterial expression. This full-length Haspin gene was cloned into the pMALc2E vector (New England Biolabs, Ipswich, Mass.) using EcoR I and Sal I sites. Haspin was expressed and purified as an N-terminal MBP fusion protein from E. coli Rosetta™2(DE3)pLysS cells (Novagen, Madison, Wis.). A freshly transformed colony was used to initiate a small volume liquid culture in LB medium with 2 g/l glucose, 34 μg/ml chloramphenicol and 100 μg/ml ampicillin. This culture was used to inoculate a large volume of the same medium and grown until an absorbance at 600 nm of 0.5 was reached. Protein expression was induced by adding 0.3 mM isopropyl thiogalactoside and growth with shaking at room temperature for 14 hours. Affinity column chromatography was carried out using amylose resin following the manufacturer's instructions (New England Biolabs). The fusion protein was eluted in 50 mM Tris, pH 7.5, 200 mM NaCl, 10 mM maltose and dialyzed into 50 mM Tris, pH 7.5, 200 mM NaCl, 2 mM DTT and 50% glycerol. The purity and yield of intact fusion protein was determined by SDS-PAGE and Coomassie Blue staining, in comparison with known quantities of bovine serum albumin.
This peptide carried biotin on the side chain of the C-terminal lysine. Recombinant full-length human histone H3 was from New England Biolabs. ATP and Staurosporine were purchased from Sigma-Aldrich (St Louis, Mo.). Rabbit monoclonal anti-Histone H3T3ph antibody (clone JY325) from Millipore (Billerica, Mass.) was directly labeled by PerkinElmer (Waltham, Mass.) with LANCE Eu W1024. For indirect detection, LANCE Eu W1024 labeled anti-rabbit IgG antibody was used (PerkinElmer). Streptavidin conjugated to SureLight-Allophycocyanin (PerkinElmer) was used as the acceptor fluorophore.
A CRS CataLyst Express robotic arm (Thermo Fisher Scientific, Waltham, Mass.) and a Cybi-well 384 channel simultaneous pipettor (CyBio AG, Jena, Germany) were used to carry out the high throughput screening of a small molecule library. Kinase reactions were performed in 50 mM Tris, pH 7.5, 5 mM MgCl2, 1 mM DTT, 0.01% Brij-35 using Proxiplate 384 Plus white assay plates (PerkinElmer). […] The reaction was incubated for 10 minutes at room temperature. The reaction was terminated by addition of […] 50 mM EDTA, 2 nM Europium labeled anti-Histone H3T3ph antibody, 40 nM Streptavidin-APC. After a two hour incubation at room temperature, TR-FRET measurements were performed using a PHERAstar HTS microplate reader (BMG Labtech, Offenberg, Germany), and were expressed as ratios of acceptor fluorescence at 665 nm over donor fluorescence at 620 nm.
Data were analyzed using GraphPad Prism Version 4 (GraphPad Software Inc, La Jolla, Calif.). No inhibitor (“MAX”) and Staurosporine inhibitor (“MIN”) controls were used to calculate Z′ values and signal to background ratios during the high throughput screen. […] Km concentrations were also determined by non-linear regression.
To identify Haspin inhibitors by high throughput screening a homogeneous kinase assay based on time-resolved fluorescence resonance energy transfer (TR-FRET) was designed (Patnaik D., et al. J Biomol. Screen 13: 1025-1034, […].). This TR-FRET assay was utilized to screen a small molecule library of approximately 140,000 compounds. Primary hits were re-tested by TR-FRET assay using the peptide substrate and then revalidated by assaying the compounds in a radiometric assay using full-length Histone H3 as a protein substrate.
IC50 values were determined for inhibition of Haspin kinase utilizing the TR-FRET assay described in Example 3.

Where [1] appears, read: inhibition of Haspin kinase, TR-FRET assay of Example 3, MBP-Haspin, H3(1-21)-biotin peptide 0.1 μM, ATP 200 μM, read-out: IC50.

Like-named read-outs stand apart in the source and are kept apart here.

In the case of `Cc1nccc2c3ccc(OC(C)(C)C)cc3n(CCCCN)c12` [LDN-211903], the IC50 (read-out: IC50) is below 5000 nM.

As to `Cc1nccc2c1[nH]c1cc(OCCCCNC(=O)OC(C)(C)C)ccc12` [LDN-209920], under “read-out: IC50”, the IC50 was above 10000 nM.

As to `Cc1nccc2c3ccc(NS(C)(=O)=O)cc3n(CCCCN)c12` [LDN-211899], the IC50 under setting [1] was below 1000 nM.

With `Cc1nccc2c1[nH]c1cc(OCCCCN)ccc12` [LDN-209932], the IC50 under setting [1] is below 2000 nM.

In the case of `COc1ccc2c3ccncc3n(CCCCN)c2c1` [LDN-209983], under setting [1], the IC50 was below 350 nM.

As for `Cc1nccc2c1[nH]c1cc(OCCCN)ccc12` [LDN-209931], the IC50 under setting [1] was below 1000 nM.

In the case of `COc1ccc2c3ccnc(C(F)(F)F)c3n(CCCCN)c2c1` [LDN-211898], the IC50 under setting [1] is below 150 nM.

For the compound `COc1cccc2c1c1ccnc(C)c1n2CCCCN` [LDN-211895], the IC50 under setting [1] was below 3500 nM.

Consider `COc1ccc2c3ccnc(C)c3n(CCCCN)c2c1Cl` [LDN-211897], for which the IC50 under setting [1] is below 1200 nM.

Turning to `COc1ccc2c(c1)[nH]c1ccccc12` [LDN-209934], the IC50 (read-out: IC50) was above 1000 nM.

With `COc1ccc2c3ccnc(C)c3n(CCCCN)c2c1` [LDN-211901], the IC50 under setting [1] was below 500 nM.

On to `COc1ccc2c3ccnc(C)c3n(CCCC(N)c3ccccc3)c2c1` (centres unmarked) [LDN-211902], for which the IC50 (read-out: IC50) was below 200 nM.

Take `NCCCCn1c2cc(O)ccc2c2ccnc(C(F)(F)F)c21` [LDN-211998]: the IC50 under setting [1] was below 300 nM.

In the case of `Cc1nccc2c3cc4c(cc3n(CCCCN)c12)OCO4` [LDN-211896], the IC50 under setting [1] is below 700 nM.

For `COc1ccc2c(c1)c1ccnc(C)c1n2CCCCN` [LDN-211894], under setting [1], the IC50 was below 3000 nM.

Take `CNCCCCn1c2cc(OC)ccc2c2ccnc(C)c21` [LDN-211900]: under setting [1], the IC50 is below 400 nM.

For `CCc1nccc2c3ccc(OC)cc3n(CCCCN)c12` [LDN-209984], under setting [1], the IC50 is below 200 nM.

Consider `COc1ccc2c(c1)[nH]c1c(-c3ccccc3)nccc12` [LDN-209952], for which, where the note is “read-out: IC50”, the half-maximal inhibitory concentration (IC50) was above 5000 nM.

As to `COc1ccc2c3ccnc(C(C)C)c3n(CCCCN)c2c1` [LDN-209985], the half-inhibitory concentration (IC50) under setting [1] was below 600 nM.

With `COc1ccc2c(c1)[nH]c1ncccc12` [LDN-209919], where the note is “read-out: IC50”, the IC50 is above 100000 nM.

As to `COc1cccc2c3ccnc(C)c3n(CCCCN)c12` [LDN-211893], under setting [1], the IC50 is below 300 nM.

Consider `c1ccc2c(c1)[nH]c1cnccc12` [LDN-14063], for which the IC50 (read-out: IC50) is above 10000 nM.

In the case of `COc1ccc2c(c1)[nH]c1c(/C=C/c3ccccc3)nccc12` [LDN-57292], the “Haspin kinase inhibitory activity (in words)” value is on record as “identified as a Haspin kinase inhibitors”. Besides, the IC50 (read-out: IC50) was below 2000 nM.

On to `COc1ccc2c(c1)[nH]c1c(C)nccc12` [LDN-97388, harmine, reference compound], for which the IC50 was below 1000 nM and the “Haspin kinase inhibitory activity (in words)” value is given as “identified as a Haspin kinase inhibitors”.

As for harmol [LDN-21813, reference compound], the “Haspin kinase inhibitory activity (in words)” value is “identified as a Haspin kinase inhibitors”. Moreover, the IC50 under setting [1] was below 1500 nM.

With `Cc1nccc2c3ccc(F)cc3n(CCCCN)c12` [LDN-209987], the IC50 under setting [1] is below 600 nM.

Take `COc1ccc2c3ccnc(C)c3n(CCCCN)c2c1` [LDN-209953]: the IC50 under setting [1] was below 200 nM.

For the compound `Cc1nccc2c1[nH]c1cc(OCCCNC(=O)OC(C)(C)C)ccc12` [LDN-209921], the IC50 (read-out: IC50) was above 10000 nM.

As for `Cc1nccc2c3ccc(O)cc3n(CCCCN)c12` [LDN-209986], the IC50 under setting [1] was below 200 nM.
